Earlier results on 11 molecules are cited in patent publication US6682694B2, “Uncomplexed cyclodextrin solutions for odor control on inanimate surfaces” (The Procter & Gamble Company, priority 1994, dated 2004).

For the data set the following is noted: for water solubility: in water.

With `OCCOc1ccccc1` [2-phenoxyethanol], the water solubility result is on record as “about 2.67%”.
In the case of `OCCc1ccccc1` [2-phenylethanol], the water solubility result was “about 2%”.
On to `O=[N+]([O-])C1(Br)COCOC1` [Bronidox L, 5-bromo-5-nitro-1,3-dioxane], for which the water solubility entry is “about 0.46%”.
For the molecule `O=[N+]([O-])C(Br)(CO)CO` [Bronopol, 2-bromo-2-nitropropane-1,3-diol], the water solubility result was “about 25%”.
As to `CC1(C)C(=O)N(CO)C(=O)N1CO` [DMDM hydantoin, 1,3-bis(hydroxymethyl)-5,5-dimethyl-2,4-imidazolidinedione], the water solubility result is reported as “more than 50%”.
On to `ClC=CC[N+]12CN3CN(CN(C3)C1)C2.[Cl-]` [Dowicil 200, 1-(3-Chlorallyl)-3,5,7-triaza-1-azoniaadamantane chloride], for which the “solubility in water” value is on record as “freely soluble in water”.
`OCc1ccccc1` [benzyl alcohol]: the water solubility entry was “about 4%”.
`[H]/N=C(\N/C(=N/[H])NCCCCCCNC(=N)NC(=N)Nc1ccc(Cl)cc1)Nc1ccc(Cl)cc1` [chlorhexidine diacetate, 1,1′-hexamethylene bis(5-(p-chlorophenyl)biguanide), reference compound]: the water solubility entry is reported as “about 1.8%”.
Consider `[H]/N=C(\N/C(=N/[H])NCCCCCCNC(=N)NC(=N)Nc1ccc(Cl)cc1)Nc1ccc(Cl)cc1` [chlorhexidine digluconate, 1,1′-hexamethylene bis(5-(p-chlorophenyl)biguanide), reference compound], for which the water solubility result is given as “about 70%”.
Consider `CC(C)(O)C(Cl)(Cl)Cl` [chlorobutanol, 1,1,1-Trichloro-2-methylpropan-2-ol, reference compound], for which the water solubility entry is on record as “about 0.8%”.
For the molecule `[Na+].[O-][n+]1ccccc1[S-]` [sodium pyrithione], the water solubility entry is “about 50%”.
